What follows are compounds tested on TFEB (assay: TFEB nuclear translocation assay, HeLa wt cells). Details: 2 hrs compound treatment, Table 1 does not say HeLa wt or TRPML1 KO.
Assay type: cell-based
Procedure, shortened: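 HeLa wt cells were treated with compound for 2 hrs at 37° C, then fixed in 4% PFA and immunostained for TFEB with an Alexa 488 secondary and Hoechst nuclear counterstain. Automated epifluorescence imaging at ×20 gave the ratio of nuclear TFEB intensity to a perinuclear ring region, from which AC50 was derived.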
In the case of `CC(c1cc(Cl)cnc1N1CCC(CN2CCC(F)(F)CC2)CC1)S(=O)(=O)c1ccc2c(c1)CCC2` (single isomer, unassigned) [Compound A-994, 5-chloro-2-(4-((4,4-difluoropiperidin-1-yl)methyl)piperidin-1-yl)-3-(1-((2,3-dihydro-1H-inden-5-yl)sulfonyl)ethyl)pyridine], the AC50 is reported as ≤ 2 µM. For `Cc1cnc(N2CCC(CN3CCC(F)(F)CC3)CC2)c(C(C)S(=O)(=O)c2ccc(S(=O)(=O)N(C)C)cc2)c1` (single isomer, unassigned) [Compound A-995, 4-((1-(2-(4-((4,4-difluoropiperidin-1-yl)methyl)piperidin-1-yl)-5-methylpyridin-3-yl)ethyl)sulfonyl)-N,N-dimethylbenzenesulfonamide], the AC50 was ≥ 10 µM. For `CC(c1cccc(F)c1N1CCC(CN2CCC(F)(F)CC2)CC1)S(=O)(=O)c1ccc(C(F)F)cc1` (single isomer, unassigned) [Compound A-998, 1-((1-(2-(1-((4-(difluoromethyl)phenyl)sulfonyl)ethyl)-6-fluorophenyl)piperidin-4-yl)methyl)-4,4-difluoropiperidine], the AC50 was 2.01 to 8 µM. With `Cc1cnc(N2CCC(CN3CCC(F)(F)CC3)CC2)c(C(C)S(=O)(=O)c2ccc3c(c2)CCC3)c1` (single isomer, unassigned) [Compound A-999, 2-(4-((4,4-difluoropiperidin-1-yl)methyl)piperidin-1-yl)-3-(1-((2,3-dihydro-1H-inden-5-yl)sulfonyl)ethyl)-5-methylpyridine] the AC50 was ≤ 2 µM. For `Cc1cnc(N2CCC(CN3CCC(F)(F)CC3)CC2)c(C(C)S(=O)(=O)c2ccc3c(c2)CCC3)c1` (single isomer, unassigned) [Compound A-1000, 2-(4-((4,4-difluoropiperidin-1-yl)methyl)piperidin-1-yl)-3-(1-((2,3-dihydro-1H-inden-5-yl)sulfonyl)ethyl)-5-methylpyridine], the AC50 was ≥ 10 µM. `C[C@@H]1CN(CC2CCN(c3c(F)cccc3[C@H](C)S(=O)(=O)c3ccc(S(=N)(=O)N(C)C)cc3)CC2)C[C@H](C)O1` (single isomer, unassigned) [Compound A-1001] was tested, and the AC50 was ≤ 2 µM. With `COCC1(C)CCN(c2ccccc2C(C)S(=O)(=O)c2ccc(S(=O)(=O)N(C)C)cc2)CC1` (single isomer, unassigned; enantiomer 2) [Compound A-699, 4-((1-(2-(4-(methoxymethyl)-4-methylpiperidin-1-yl)phenyl)ethyl)sulfonyl)-N,N-dimethylbenzenesulfonamide, enantiomer 2] the AC50 was 2.01 to 8 µM.

Same assay, conditions: Homo sapiens, HeLa, 2 h, 2 hrs compound treatment, Table 1 does not say HeLa wt or TRPML1 KO
With `CC(c1cccc(F)c1N1CCC(CN2CCC(F)(F)CC2)CC1)S(=O)(=O)c1ccc(C(F)F)cc1` (single isomer, unassigned) [Compound A-997, 1-((1-(2-(1-((4-(difluoromethyl)phenyl)sulfonyl)ethyl)-6-fluorophenyl)piperidin-4-yl)methyl)-4,4-difluoropiperidine] the AC50 was ≤ 2 µM. `COCC1(C)CCN(c2ccccc2C(C)S(=O)(=O)c2ccc(S(=O)(=O)N(C)C)cc2)CC1` (single isomer, unassigned; enantiomer 1) [Compound A-698, 4-((1-(2-(4-(methoxymethyl)-4-methylpiperidin-1-yl)phenyl)ethyl)sulfonyl)-N,N-dimethylbenzenesulfonamide, enantiomer 1] was tested, and the AC50 was ≤ 2 µM. `C[C@@H]1COC[C@@H](C)N1CC1CN(c2c(F)cccc2NS(=O)(=O)c2ccc(S(=O)(=O)N(C)C)cc2)C1` (stereo in doubt) [Compound A-873, N1-(2-(3-((3,5-dimethylmorpholino)methyl)azetidin-1-yl)-3-fluorophenyl)-N4,N4-dimethylbenzene-1,4-disulfonamide] was tested, and the AC50 was ≥ 10 µM. For `C[C@@H]1COC[C@@H](C)N1CC1CN(c2c(F)cccc2NS(=O)(=O)c2ccc(S(=O)(=O)N(C)C)cc2)C1` (stereo in doubt) [Compound A-915, rel-N4-[2-(3-{[(3R,5R)-3,5-dimethylmorpholin-4-yl]methyl}azetidin-1-yl)-3-fluorophenyl]-N1,N1-dimethylbenzene-1,4-disulfonamide], the AC50 was ≥ 10 µM.

— patent US20230104936A1, “TRPML MODULATORS” (Casma Therapeutics, Inc., priority 2019, published 2023)
